The target in series [1] is T1, human GABAA receptors containing the α5 subunit (Homo sapiens, UniProt P18507+P31644).
T1 construct: expressed in transfected cells; host or cells: Ltk- cells (mouse fibroblasts), stably expressing
T1 sequence (P31644 32-462): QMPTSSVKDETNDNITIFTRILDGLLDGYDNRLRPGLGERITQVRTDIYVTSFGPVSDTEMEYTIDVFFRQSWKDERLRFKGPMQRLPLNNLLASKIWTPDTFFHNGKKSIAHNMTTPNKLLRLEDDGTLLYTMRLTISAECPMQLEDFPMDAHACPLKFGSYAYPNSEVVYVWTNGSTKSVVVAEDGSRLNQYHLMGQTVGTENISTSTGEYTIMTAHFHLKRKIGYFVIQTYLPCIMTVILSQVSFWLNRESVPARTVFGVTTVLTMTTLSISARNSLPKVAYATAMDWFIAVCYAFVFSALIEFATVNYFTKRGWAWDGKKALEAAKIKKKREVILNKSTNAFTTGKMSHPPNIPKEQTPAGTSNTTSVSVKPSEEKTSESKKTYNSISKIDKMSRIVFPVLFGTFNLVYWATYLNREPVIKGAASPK
T1 sequence (P28472 26-473 partner): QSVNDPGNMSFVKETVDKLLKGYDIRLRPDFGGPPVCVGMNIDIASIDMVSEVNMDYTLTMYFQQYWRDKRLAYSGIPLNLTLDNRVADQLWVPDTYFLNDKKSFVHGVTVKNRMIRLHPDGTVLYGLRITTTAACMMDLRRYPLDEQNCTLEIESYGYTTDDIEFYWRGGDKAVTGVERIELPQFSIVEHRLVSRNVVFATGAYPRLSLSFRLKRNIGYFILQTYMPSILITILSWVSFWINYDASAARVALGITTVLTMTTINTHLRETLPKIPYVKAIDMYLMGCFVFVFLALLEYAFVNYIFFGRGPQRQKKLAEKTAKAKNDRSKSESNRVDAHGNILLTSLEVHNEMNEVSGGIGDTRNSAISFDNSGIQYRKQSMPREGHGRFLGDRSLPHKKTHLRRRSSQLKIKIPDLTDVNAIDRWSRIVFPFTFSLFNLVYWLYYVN
T1 sequence (P18507 40-467 limits assumed): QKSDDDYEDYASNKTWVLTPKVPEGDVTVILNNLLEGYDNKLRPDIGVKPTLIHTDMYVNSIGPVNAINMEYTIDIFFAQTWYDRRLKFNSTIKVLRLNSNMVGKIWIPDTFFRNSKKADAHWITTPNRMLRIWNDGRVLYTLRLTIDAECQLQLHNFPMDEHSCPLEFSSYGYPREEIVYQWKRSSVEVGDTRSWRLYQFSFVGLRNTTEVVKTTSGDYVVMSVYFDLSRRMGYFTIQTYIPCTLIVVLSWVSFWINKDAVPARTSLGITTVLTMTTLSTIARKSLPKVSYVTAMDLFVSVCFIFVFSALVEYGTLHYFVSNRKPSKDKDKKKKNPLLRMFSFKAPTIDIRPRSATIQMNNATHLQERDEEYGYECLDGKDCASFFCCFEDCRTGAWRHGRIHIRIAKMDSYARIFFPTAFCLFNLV
In words: [3H]-flumazenil (Ro 15-1788) displacement binding assay. To be noted: α5β3γ2 stably expressed in Ltk− cells; read-out: Ki value for displacement of [3H]Ro 15-1788 from the α5 subunit of the human GABAA receptor. As for the experimental part:
Phosphate buffered saline (PBS).
Assay buffer: 10 mM KH2PO4, 100 mM KCl, pH 7.4 at room temperature.
[^3H]-Flumazenil (18 nM for α1β3γ2 cells; 18 nM for α2β3γ2 cells; 10 nM for α3β3γ2 cells; 10 nM for α5β3γ2 cells) in assay buffer.
Flunitrazepam 100 μM in assay buffer.
Cells resuspended in assay buffer (1 tray to 10 ml).
Supernatant is removed from cells. PBS (approximately 20 ml) is added. The cells are scraped and placed in a 50 ml centrifuge tube. The procedure is repeated with a further 10 ml of PBS to ensure that most of the cells are removed. The cells are pelleted by centrifuging for 20 min at 3000 rpm in a benchtop centrifuge, and then frozen if desired. The pellets are resuspended in 10 ml of buffer per tray (25 cm×25 cm) of cells.
Can be carried out in deep 96-well plates or in tubes. Each tube contains:
50 μl of [^3H]-flumazenil (final concentration for α1β3γ2: 1.8 nM; for α2β3γ2: 1.8 nM; for α3β3γ2: […]; for α5β3γ2: 1.0nM). […]
Assays are incubated for 1 hour at […], then filtered using either a Tomtec or Brandel cell harvester onto GF/B filter followed by 3×3 ml washes with ice cold assay buffer. Filters are dried and counted by liquid scintillation counting. […] Binding parameters are determined by non-linear least squares regression analysis, from which the inhibition constant Ki can be calculated for the test compound.
On the technique in general: In a radioligand displacement assay an active substance lowers the binding of a labelled ligand.

Series [2] deals with cognition. In words: rat water maze test (Morris). The format is in vivo. The text has this: Cognition enhancement can be shown by testing the compound in the Morris watermaze as reported by McNamara and Skelton, Psychobiology, 21:101-108. The functional efficacy at the various receptor subtypes can be calculated using the method disclosed in WO-A-9625948.
Series [3] in a line: receptor occupancy at the minimum effective dose. Type of series: in vivo. To be noted: Rattus norvegicus; at dose of 0.3 mg/kg.

As to `Cc1cc(-c2nnc3c4ccccc4c(OCc4cccc(Br)n4)nn23)no1` [Reference Example 2, 6-(6-Bromopyridin-2-yl)methyloxy-3-(5-methylisoxazol-3-yl)-1,2,4-triazolo[3,4-a]phthalazine], the melting point (usually the temperature of the solid-liquid transition) lay within 247.5 to 249 °C.
Turning to `Cc1cc(-c2nnc3c4ccccc4c(OCc4cn(C)nn4)nn23)no1` [compound of the present invention, 3-(5-methylisoxazol-3-yl)-6-(1-methyl-1,2,3-triazol-4-yl)methyloxy-1,2,4-triazolo[3,4-a]phthalazine], the inhibition constant (Ki) – broadly, the equilibrium dissociation constant of an inhibitor or competing ligand from its target – in series [1] is no more than 100 nM. The “cognition enhancement in the rat water maze test” value in series [2] (demonstrated at 0.3 mg/kg and also at 3 mg/kg) is reported as “enhance cognition”. Besides, the “minimum effective dose for cognition enhancement” value in series [2] (rat water maze) is on record as 0.3 mg/kg. This molecule also yielded a receptor occupancy at 0.3 mg/kg in series [3] of 40%.
